Columns and labels:
[1] = tested on: stable HCV 1b RLuc replicon cells (genotype 1b Con1 replicon); experiment: HCV genotype 1b RLuc replicon reporter assay; format: cell-based; settings: Hepatitis C virus; stable genotype 1b Con1 RLuc replicon cells, 72 hours
Experimental: (§1) Evaluation of cell-based anti-HCV activity: Antiviral potency (EC50) was determined using a Renilla luciferase (RLuc)-based HCV replicon reporter assay. To perform the assay for genotype 1 and 2a JFH-1, stable HCV 1a RLuc replicon cells (harboring a dicistronic genotype 1a H77 replicon that encodes a RLuc reporter), stable HCV lb RLuc replicon cells (harboring a dicistronic genotype 1b Conl replicon that encodes a RLuc reporter), or stable HCV 2a JFH-1 Rluc replicon cells (harboring a dicistronic genotype 2a JFH-1 replicon that encodes a RLuc reporter; with L31 present in NS5A) were dispensed into 384-well plates for EC50 assays. To perform the assay for genotype 2a (with M31 present in NS5A) or 2b, NS5A chimeric genotype 2a JFH-1 replicons that encodes a RLuc-Neo reporter and either genotype 2a J6 strain NS5A gene or genotype 2b MD2b-1 strain NS5A gene (both with M31 present) respectively, were either transiently transfected (t) into Huh-Lunet cells or were established as stably replicating replicon cells (s) is provided. Either cells were dispensed into 384-well plates for EC50 assays. To perform the assay for genotype 3 and 4, NS5A chimeric genotype 1b Conl replicons that encodes a Pi-RLuc reporter and either genotype 3a S52 strain NS5A gene or genotype 4a ED43 strain NS5A gene respectively, were transiently transfected (t) into Huh-Lunet cells, which were subsequently dispensed into 384-well plates. Compounds were dissolved in DMSO at a concentration of 10 mM and diluted in DMSO either manually or using an automated pipeting instrument. Serially 3-fold diluted compounds were either manually mixed with cell culture media and added to the seeded cells or directly added to the cells using an automated instrument. DMSO was used as a negative (solvent; no inhibition) control, and the protease inhibitor ITMN-191 was included at a concentration >100×EC50 as a positive control. 72 hours later, cells were lysed and Renilla luciferase activity quantified as recommended by the manufacturer (Promega-Madison, Wis.). Non-linear regression was performed to calculate EC50 values.

[2] = tested on: stable HCV 1a RLuc replicon cells (genotype 1a H77 replicon); experiment: HCV genotype 1a RLuc replicon reporter assay; format: cell-based; settings: Hepatitis C virus; stable genotype 1a H77 RLuc replicon cells, 72 hours
Experimental: as §1

[3] = tested on: stable HCV 2a JFH-1 Rluc replicon cells (L31 present in NS5A); experiment: HCV genotype 2a JFH-1 RLuc replicon reporter assay; format: cell-based; settings: Hepatitis C virus, 72 h, read-out: 2a JFH (nM)
Experimental: as §1

[4] = tested on: NS5A chimeric genotype 2a JFH-1 replicon with genotype 2a J6 strain NS5A gene (M31); experiment: HCV genotype 2a J6 NS5A chimeric replicon assay, transient (t); format: cell-based; settings: Hepatitis C virus, 72 h, read-out: 2a J6 (t) (nM)
Experimental: as §1

[5] = tested on: NS5A chimeric genotype 2a JFH-1 replicon with genotype 2b MD2b-1 strain NS5A gene (M31); experiment: HCV genotype 2b NS5A chimeric replicon assay, stable (s); format: cell-based; settings: Hepatitis C virus, 72 h, read-out: 2b (s) (nM)
Experimental: as §1

[6] = tested on: NS5A chimeric genotype 1b Con1 replicon with genotype 3a S52 strain NS5A gene; experiment: HCV genotype 3a NS5A chimeric replicon assay; format: cell-based; settings: Hepatitis C virus, 72 h, read-out: 3a (nM)
Experimental: as §1

[7] = tested on: NS5A chimeric genotype 1b Con1 replicon with genotype 4a ED43 strain NS5A gene; experiment: HCV genotype 4a NS5A chimeric replicon assay; format: cell-based; settings: Hepatitis C virus, 72 h, read-out: 4a (s) (nM)
Experimental: as §1, with “[…],” for “were transiently transfected (t) into Huh-Lunet cells,”

[8] = tested on: Y93H in genotype 1a NS5A replicon; experiment: Resistance mutant replicon assay, genotype 1a NS5A Y93H; format: cell-based, HCV; settings: Hepatitis C virus, read-out: 1a Y93H (nM)
Experimental: as §1
(§2) To determine the antiviral potency (EC50) against resistance mutants, resistance mutations, including M28T, Q30R, Q30H, Q30E, L31M, Y93C, Y93H, and Y93N in genotype 1a NS5A, Y93H and L31V/Y93H in genotype 1b NS5A, and Y93H for in genotype 3a NS5A, were introduced individually into either 1a Pi-Rluc or 1b Pi-Rluc replicons by site directed mutagenesis. Replicon RNA of each resistant mutant was transiently transfected into Huh-7-derived cured-51 cells and antiviral potency was determined on these transfected cells as described above.

[9] = tested on: Y93N in genotype 1a NS5A replicon; experiment: Resistance mutant replicon assay, genotype 1a NS5A Y93N; format: cell-based, HCV; settings: Hepatitis C virus, read-out: 1a Y93N (nM)
Experimental: as §1, §2

[10] = tested on: Y93H in genotype 3a NS5A replicon; experiment: Resistance mutant replicon assay, genotype 3a NS5A Y93H; format: cell-based, HCV; settings: Hepatitis C virus, read-out: 3a Y93H (nM)
Experimental: as §1, §2

| SMILES | EC50 [1] [pM] | EC50 [2] [pM] | EC50 [3] [nM] | EC50 [4] [nM] | EC50 [5] [nM] | EC50 [6] [nM] | EC50 [7] [nM] | EC50 [8] [nM] | EC50 [9] [nM] | EC50 [10] [nM] |
| --- | --- | --- | --- | --- | --- | --- | --- | --- | --- | --- |
| COC(=O)N[C@H](C(=O)N1[C@H](c2nc3ccc4cc5c(cc4c3[nH]2)OCc2cc(-c3cnc([C@@H]4CC[C@H](C)N4C(=O)[C@@H](NC(=O)OC)C4C[C@@H](C)O[C@H](C)C4)[nH]3)ccc2-5)C[C@@H]2CCC[C@@H]21)C(C)C (stereo partly drawn) [Example BI, methyl{(2S)-1-[(2S,3aS,6aS)-2-(9-{2-[(2S,5S)-1-{(2S)-2-[(2R,6R)-2,6-dimethyltetrahydro-2H-pyran-4-yl]-2-[(methoxycarbonyl)amino]acetyl}-5-methylpyrrolidin-2-yl]-1H-imidazol-5-yl}-1,11-dihydroisochromeno[4′,3′:6,7]naphtho[1,2-d]imidazol-2-yl)hexahydrocyclopenta[b]pyrrol-1(2H)-yl]-3-methyl-1-oxobutan-2-yl}carbamate] | 24 | 12 | 0.011 | 0.022 | 0.033 | 0.017 | 0.011 | 0.184 | 0.466 | 3.45 |
| CC[C@H](C)[C@H](NC(=O)OC)C(=O)N1[C@H](c2ncc(-c3ccc4c(c3)COc3cc5c(ccc6nc([C@@H]7CC[C@H](C)N7C(=O)[C@@H](NC(=O)OC)C7C[C@@H](C)O[C@H](C)C7)[nH]c65)cc3-4)[nH]2)C[C@@H]2CCC[C@@H]21 (stereo partly drawn) [Example BG, methyl{(2S,3S)-1-[(2S,3aS,6aS)-2-(5-{2-[(2S,5S)-1-{(2S)-2-[(2R,6R)-2,6-dimethyltetrahydro-2H-pyran-4-yl]-2-[(methoxycarbonyl)amino]acetyl}-5-methylpyrrolidin-2-yl]-1,11-dihydroisochromeno[4′,3′:6,7]naphtho[1,2-d]imidazol-9-yl}-1H-imidazol-2-yl)hexahydrocyclopenta[b]pyrrol-1(2H)-yl]-3-methyl-1-oxopentan-2-yl}carbamate] | 18 | 20 | 0.017 | 0.045 | 0.039 | 0.028 | 0.017 | 0.364 | 0.883 | 5.58 |
| COC(=O)N[C@H](C(=O)N1[C@@H](C)CC[C@H]1c1ncc(-c2ccc3c(c2)COc2cc4c(ccc5nc([C@@H]6C[C@@H]7CCC[C@@H]7N6C(=O)[C@@H](NC(=O)OC)C6C[C@@H](C)O[C@H](C)C6)[nH]c54)cc2-3)[nH]1)C(C)C (stereo partly drawn) [Example AX, methyl {(2S)-1-[(2S,5S)-2-(5-{2-[(2S,3aS,6aS)-1-{(2S)-2-[(2R,6R)-2,6-dimethyltetrahydro-2H-pyran-4-yl]-2-[(methoxycarbonyl)amino]acetyl}octahydrocyclopenta[b]pyrrol-2-yl]-1,11-dihydroisochromeno[4′,3′:6,7]naphtho[1,2-d]imidazol-9-yl}-1H-imidazol-2-yl)-5-methylpyrrolidin-1-yl]-3-methyl-1-oxobutan-2-yl}carbamate] | 22 | 17 | 0.012 | 0.046 | 0.027 | 0.015 | 0.01 | 0.48 | 0.885 | 4.97 |
| COC(=O)N[C@H](C(=O)N1[C@@H](c2nc3ccc4cc5c(cc4c3[nH]2)OCc2cc(-c3cnc([C@@H]4C[C@H](C)[C@H](C)N4C(=O)[C@@H](NC(=O)OC)C4C[C@@H](C)O[C@H](C)C4)[nH]3)ccc2-5)C[C@@H](C)[C@H]1C)C1C[C@@H](C)O[C@H](C)C1 (stereo partly drawn) [Example BA, Methyl {(1S)-1-[(2R,6R)-2,6-dimethyltetrahydro-2H-pyran-4-yl]-2-[(2R,3R,5R)-5-(9-{2-[(2S,4S,5S)-1-{(2S)-2-[(2R,6R)-2,6-dimethyltetrahydro-2H-pyran-4-yl]-2-[(methoxycarbonyl)amino]acetyl}-4,5-dimethylpyrrolidin-2-yl]-1H-imidazol-5-yl}-1,11-dihydroisochromeno[4′,3′:6,7]naphtho[1,2-d]imidazol-2-yl)-2,3-dimethylpyrrolidin-1-yl]-2-oxoethyl}carbamate] | 61 | 169 | 0.086 | – | 0.202 | 0.231 | 0.108 | 0.359 | 0.496 | 40.6 |
| COC(=O)N[C@H](C(=O)N1[C@H](c2ncc(-c3ccc4c(c3)COc3cc5c(ccc6nc([C@@H]7C[C@H](C)[C@H](C)N7C(=O)[C@@H](NC(=O)OC)C7C[C@@H](C)O[C@H](C)C7)[nH]c65)cc3-4)[nH]2)C[C@H](C)[C@@H]1C)C1C[C@@H](C)O[C@H](C)C1 (stereo partly drawn) [Example AZ, Methyl {(1S)-1-[(2R,6R)-2,6-dimethyltetrahydro-2H-pyran-4-yl]-2-[(2S ,3S,5S)-5-(5-{2-[(2S,4S,5S)-1-{(2S)-2-[(2R,6R)-2,6-dimethyltetrahydro-2H-pyran-4-yl]-2-[(methoxycarbonyl)amino]acetyl}-4,5-dimethylpyrrolidin-2-yl]-1,11-dihydroisochromeno[4′,3′:6,7]naphtho[1,2-d]imidazol-9-yl}-1H-imidazol-2-yl)-2,3-dimethylpyrrolidin-1-yl]-2-oxoethyl}carbamate] | 31 | 21 | 0.01 | – | 0.024 | 0.025 | 0.013 | 0.025 | 0.059 | 4.52 |
